Format in all cases: cell-based
Series [1] has as its system human erythrocytes. Kind of series: Annexin-V-FLUOS binding (eryptosis) by flow cytometry. The procedure:
(§1) Single treatment: Erythrocytes were treated with costunolide or chelerythrine for 24 hours (see FIGS. 2, 4, 5 and 6). Double treatments: Erythrocytes were first pre-treated with chelerythrine for two hours, followed by treatment with costunolide for further 24 hours (see FIGS. 3 and 7). Thus, the incubation time for chelerythrine-treated erythrocytes lasted 26 h and 24 h for costunolide-treated erythrocytes. In single (0.2% v/v DMSO) and double treatments (0.4% v/v DMSO), DMSO-treated cells served as negative controls. […]
(§2) At the end of the incubation period, 0.1 ml erythrocytes (3×10^6) were added in 500 μl annexin wash buffer, mixed thoroughly and pelleted by centrifuging. […] After an incubation period of 20 minutes in the dark at room temperature, 200 μl annexin binding buffer was added to each sample, thoroughly vortexed to obtain single cell suspensions, and analyzed by flow cytometry on a FACS Calibur (Becton Dickinson, Heidelberg, Germany). In the FL1-channel, binding of annexin-V-FLUOS (eryptosis) was measured. Erythrocyte volume was determined by forward scatter (FSC). To this end, corresponding erythrocytes suspensions were immediately analysed by flow cytometry.
On the technique in general: A flow cytometer gives signals particle by particle.

Series [2] concerns human erythrocytes. In words: Erythrocyte volume by forward scatter (cell shrinkage). To be noted: single treatment with increasing concentrations of costunolide, 24 h, FIG. 2. The protocol:
as §1, §2

Series [3] concerns human erythrocytes. Kind of series: Hemolysis measurement (hemoglobin in supernatant, 405 nm). To be noted: costunolide treatment, 24 h, FIG. 2C. The protocol:
After 24 hours treatment of erythrocytes (0.6% Hct) with costunolide and/or chelerythrine, hemolysis was determined. 600 μl cell suspension form each condition containing 3.6×10^6 erythrocytes centrifuged for 8 min at 420×g, 4° C., and the supernatants were harvested. As a measure of hemolysis, the hemoglobin (Hb) concentration of the supernatants was determined photometrically at 405 nm. The absorption of the supernatant of DMSO-treated erythrocytes lysed in 600 μl distilled water was defined as 100%. From this the standard curve was made by serial dilution.

For series [4], the system named is human erythrocytes. Kind of series: Intracellular GSH and GSSG analysis. To be noted: costunolide 1-80 μM, 24 h, FIG. 5. The procedure: For single (FIG. 5) or double treatments (FIG. 7), pure RBCs (0.6% Hct) were suspended in 30 ml Ringer solution and treated with varying concentrations of costunolide (1-80 μM) or different concentrations of chelerythrine (1-10 μM) and a fixed costunolide concentration (80 μM). DMSO-treated RBCs served as negative control. After incubation, 58 μl from a 310 mM NEM stock was given to each condition, gently mixed for 1 min and then centrifuged 10 min long at 10 C and 228×g. Supernatants were removed and the cell pellets were stored at −20° C. until analyses. GSH and GSSG were measured on the clear supernatant obtained by treatment of 0.1 ml RBCs with 0.12 ml 15% (w/v) trichloroacetic acid. […] GSSG was measured at the spectrophotometer by the GSH recycling method with slight modifications (Giustarini D. et al. 2013; Nat. Protoc. 8: 1660-1669, “Analysis of GSH and GSSG after derivatization with N-ethylmaleimide”). One aliquot of RBCs ([…]) was hemolyzed by a 1:200 dilution with H2O for haemoglobin determination (Di lorio E.E. 1981; Methods Enzymol. 76: 57-72 “Preparation of derivatives of ferrous and ferric hemoglobin”). The HPLC analyses were carried out by an Agilent series 1100 instrument. The spectrophotometric analyses were performed by a Jasco V-530 instrument.

Series [5] has as its target T1, glucose-6-phosphate dehydrogenase (G6PDH) (Homo sapiens, UniProt P11413).
T1 construct: endogenous in cells; host or cells: human erythrocytes (RBCs), hemolysate
Kind of series: Determination of G6PDH activity in erythrocyte lysates. To be noted: costunolide treatment of erythrocytes, 24 h, FIG. 6. The protocol: Pure RBCs (0.6% Hct) were incubated in 20 ml Ringer solution and treated with DMSO or different concentrations of costunolide. 24 hrs later, cell suspensions were centrifuged at 10° C., 228×g. Supernatants were removed and the cell pellets were stored at −80° C. until analyses. G6PDH activity was measured in lysates according to methods recommended by the International Committee for Standardization in Hematology (Di lorio E.E. 1981; l.c.). The activity was expressed in units per grams of hemoglobin (U/g Hb) (Ghashghaeinia M. et al. 2012; l.c.). RBC pellet was diluted 1:20 with distilled water. After 10 min (for GR 20 min) incubation at 37° C., the reactions were started by adding substrate or hemolysate and mixed properly. Then, 200 μL of each reaction mixture was transferred into a 96-well plate and changes in absorbance were recorded at 340 nm at 1 min intervals for 20 min at 37° C. (Infinite 200 Nanoquant, Tecan). All assays were run in triplicates and specific enzyme activity was calculated using the Lambert-Beer law. Activity =(ΔA×V/(ϵ×l×t))×f.
0.1 M Tris-HCl/0.5 mM EDTA, pH=8.0; 0.01 M MgCl2; 0.2 mM NADP^+; 20 μL of 1:20 hemolysate; 10 min incubation at 37° C.; start by addition of 0.6 mM 6PGA+0.6 mM G6P

T1 sequence (P11413 whole entry): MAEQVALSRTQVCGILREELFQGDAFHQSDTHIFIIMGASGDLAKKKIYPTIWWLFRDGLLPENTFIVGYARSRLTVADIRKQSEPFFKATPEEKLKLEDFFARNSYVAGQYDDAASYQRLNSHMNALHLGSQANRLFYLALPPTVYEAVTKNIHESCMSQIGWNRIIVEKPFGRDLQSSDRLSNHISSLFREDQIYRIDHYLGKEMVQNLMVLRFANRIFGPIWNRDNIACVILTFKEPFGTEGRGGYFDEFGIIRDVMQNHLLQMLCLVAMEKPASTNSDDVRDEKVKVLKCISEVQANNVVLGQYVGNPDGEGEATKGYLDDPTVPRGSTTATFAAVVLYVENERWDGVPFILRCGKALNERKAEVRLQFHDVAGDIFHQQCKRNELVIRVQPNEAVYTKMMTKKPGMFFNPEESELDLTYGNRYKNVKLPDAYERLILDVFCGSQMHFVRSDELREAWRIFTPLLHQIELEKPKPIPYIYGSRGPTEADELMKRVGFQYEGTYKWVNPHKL

In the series with human erythrocytes [1] (without costunolide, DMSO control 1.69%, FIG. 3A), `COc1ccc2c(c[n+](C)c3c4cc5c(cc4ccc23)OCO5)c1OC` [chelerythrine, 1,2-Dimethoxy-12-methyl[1,3]benzodioxolo[5,6-c]phenanthridinium] returned a basal eryptosis rate of 1.1%.

Regarding `C=C1C(=O)O[C@@H]2/C=C(\C)CC/C=C(\C)CC[C@@H]12` [costunolide], in the series with human erythrocytes [1] (single treatment with increasing concentrations of costunolide, 24 h, FIG. 2), the eryptosis rate result is “increased rates of eryptosis”. The cell shrinkage entry with human erythrocytes [2] was “increased rates of eryptosis and cell shrinkage”. Besides, the hemolysis result in the series with human erythrocytes [3] is “not associated with hemolysis”. In addition, in the series with human erythrocytes [4], the “GSH (reduced glutathione) level” value was “deplete both the reduced (GSH) and the oxidized (GSSG) form of glutathione in a concentration-dependent manner”; the “GSSG (oxidized glutathione) level” value is “deplete both the reduced (GSH) and the oxidized (GSSG) form of glutathione in a concentration-dependent manner”. In series [5], the G6PDH activity entry was “inhibit G6PDH activity completely”.

The values are drawn from patent US20220370502A1, “Active Ingredient of an Erythrocytes-containing Composition” (priority 2020, published 2022).
